The subject of assay [1] is miR-451. As to the kind of experiment: Zebrafish embryo erythrocyte accumulation with PTU, O-dianisidine hemoglobin stain. It is filed as in vivo. To be noted: for hemoglobinized cells / blood accumulation (O-dianisidine staining): 2-day-old embryos, lateral view, tail region, upon drug treatment. The procedure:
Zebrafish embryos were incubated with different drug candidates predicted by sChemNET in combination with phenyl-thiourea (PTU), a chemical known to induce anemia due to oxidative stress when miR-451 activity is impaired, but not in wild-type embryos. 48 hours after fertilization, embryos display robust blood circulation. At this stage, the accumulation of mature erythrocytes can be easily assessed in transparent embryos using O-dianisidine, a hemoglobin-specific stain. Drugs impairing miR-451 activity induce anemia, while miR-451 boosting drugs will increase erythrocyte production (blood circulation).
Ventral images of 2-day-old embryos stained with O-dianisidine reveal hemoglobinized cells (brown staining).) for wild-type embryos and those treated with docetaxel, β-elemene and α-calcidol. Blood accumulated in the ventral region (ducts of Cuvier).

In another assay the test system is miR-144. As to the kind of experiment: Effect on levels of miR-144. It is filed as in vivo, Zebrafish. To be noted: erythrocyte specific miR-144. From the text:
(§1) Either mechanism of action may be valid, as both pathways will allow the desired output, which complements miRNA activity.
(§2) Dicer processes miR-144, but at the same time is a target of miR-144 (PMID: 32191872), effectively canceling a potential drug-induced increase in miR-144 output.

The test system of assay [2] is miR-451. As to the kind of experiment: Effect on levels of miR-451. To be noted: zebrafish, in vivo.
Description: as §1, §2

With `C=C1/C(=C\C=C2/CCC[C@]3(C)[C@@H]([C@H](C)CCCC(C)C)CC[C@@H]23)C[C@@H](O)C[C@@H]1O` [α-Calcidol], the “hemoglobinized cells / blood accumulation (O-dianisidine staining)” value with miR-451 [1] was “accumulation of the excess of blood in the tail region”. The blood production entry in the assay on miR-451 [1] (zebrafish, in vivo) is “boosts blood production”. Also, the “levels of miR-144 (cluster partner of miR-451)” value with miR-144 is on record as “does not directly affect the levels”. Besides, in the assay with miR-451 [2], the “levels of miR-451” value was “does not directly affect the levels”.

Consider `C=C[C@]1(C)CC[C@@H](C(=C)C)C[C@H]1C(=C)C` [β-elemene], for which, in the assay on miR-451 [1], the “hemoglobinized cells / blood accumulation (O-dianisidine staining)” value was “accumulation of the excess of blood in the tail region”.

As to `CC(=O)O[C@@]12CO[C@@H]1C[C@H](O)[C@@]1(C)C(=O)[C@H](O)C3=C(C)[C@@H](OC(=O)[C@H](O)[C@@H](NC(=O)OC(C)(C)C)c4ccccc4)C[C@@](O)([C@@H](OC(=O)c4ccccc4)[C@H]21)C3(C)C` [docetaxel], the “hemoglobinized cells / blood accumulation (O-dianisidine staining)” value with miR-451 [1] is given as “accumulation of the excess of blood in the tail region”.
